Publication PMC10556625 (Proceedings of the National Academy of Sciences of the …, 2023)

System: HeLa cells

N#Cc1c(-n2c(Br)c(Br)c3cc(Br)ccc32)[nH]c2c(Br)cc(Br)cc12 [AETX, aetokthonotoxin]
Cytotoxicity EC50 on HeLa cells converted to mass concentration: 0.65 µg/mL | EC50: 1 µM
